16 compounds from US8633216B2, “Imidazo[1,5-a]pyridine derivatives, method for preparing same and pharmaceutical compositions containing same” (Sanofi, priority 2005, dated 2014) can be followed below.

Structures can show the parent of a compound that is named as a salt.

Data set [1] concerns level of circulating platelets. The data set can be described thus: Effect on thrombopenia induced by carboplatin in the mouse. It is filed as in vivo. The following applies: 150 mg/kg intraperitoneally, balbC mice, at nadir. An excerpt: Thrombopenia remains a pathology for which few effective treatments exist apart from the transfusion of platelet concentrates and thrombopoietin (Kaushansky, K., New Eng. J. Med., (1998), 339, pp. 746-754).
Anticancer chemotherapy constitutes one of the major causes of thrombopenia. One of the agents of chemotherapy, carboplatin, has been widely used to induce thrombopenia in the mouse and to be able thus to characterize the effect of compounds capable of improving the level of platelets, such as, for example, thrombopoietin (Hokom M. M. et al., Blood, (1995), 86, pp. 4486-4492).
150 mg/kg of carboplatin were administered intraperitoneally to balbC mice having a weight of 20 g. A blood sample is taken periodically by retro-orbital puncture and the level of circulating platelets is determined by a hematology automated machine (MS9™ from Melet-Schloesing Laboratoires, Cergy-Pontoise, France). […]
The compounds according to the invention or their solvent (a blank-control) are administered by the oral route for 5 days, the treatment being begun 7 days before the administration of carboplatin. The experiments are carried out on batches comprising 10-12 mice and the results are expressed as a mean±standard error. […]

In the case of `COC(=O)c1cccc(-c2nc(C(=O)c3ccc(N)c(OC)c3)n3ccccc23)c1`, the melting point was found to be 166 °C.
On to `COc1cc(C(=O)c2ncc3cc(C(=O)O)ccn23)ccc1[N+](=O)[O-]`, for which the melting point is > 350 °C.
With `COC(=O)c1ccc2cnc(C(=O)c3ccc([N+](=O)[O-])c(OC)c3)n2c1`, the melting point is 218 °C.
On the same count and under the same terms, next, `COC(=O)c1ccc2cnc(C(=O)c3ccc(N)c(OC)c3)n2c1`: 179 °C.
For `COc1cc(C(=O)c2nc(C#N)c3ccccn23)ccc1N` (as salt: HCl), the melting point came out at 224 °C.
Turning to `COc1cc(C(=O)c2nc(Br)c3ccccn23)ccc1N` (as salt: HCl) (hydrate or solvate), the melting point turned out to be 204 °C.
On the same count and under the same terms, next, `COc1cccc(C(=O)Nc2nc(C(=O)c3ccc(N)c(OC)c3)n3ccccc23)c1` (as salt: HCl) (hydrate or solvate): 199 °C.
Take `COc1cc(C(=O)c2nc(-c3cccc(F)c3)c3ccccn23)ccc1N` (as salt: HCl) (hydrate or solvate): the melting point was 228 °C.
The same measure, in the same setting: with `COc1cc(C(=O)c2ncc3cc(C(=O)O)ccn23)ccc1N` (as salt: HCl) (hydrate or solvate) the figure was 268 °C; with `COC(=O)[C@@H](C)NC(=O)c1ccn2c(C(=O)c3ccc(N)c(OC)c3)ncc2c1` (as salt: HCl) (hydrate or solvate), 192 °C.
On the same count and under the same terms, with `COc1cc(C(=O)c2ncc3c(C(=O)O)cccn23)ccc1N` (as salt: Na) the figure was 259 °C.
On the same count and under the same terms, next, `COc1cc(C(=O)c2ncc3c(C(=O)O)cccn23)ccc1[N+](=O)[O-]` (as salt: Na): 332 °C.
Regarding `COc1cccc(-c2nc(C(=O)c3ccc(N)c(OC)c3)n3ccc(C(=O)O)cc23)c1` (as salt: Na) (hydrate or solvate), the melting point is 307 °C.
`COc1cc(C(=O)c2ncc3cc(OCC(=O)O)ccn23)ccc1N` (as salt: Na) (hydrate or solvate) came in with a melting point of 302 °C.
In turn, `COc1cc(C(=O)c2ncc3ccc(C(=O)N[C@@H](CO)C(=O)O)cn23)ccc1N` (as salt: Na) (hydrate or solvate) yielded a melting point of 244 °C.
For the compound `N.N.O=C([O-])C1(C(=O)[O-])CCC1.[Pt+2]` [carboplatin], the “reduction in the level of circulating platelets” value in data set [1] is reported as 50-60%.
